{"source": "paper PMC5049785", "about": "“Characterization of Novel Antimalarial Compound ACT-451840: Preclinical Assessment of Activity and Dose–Efficacy Modeling” (PLoS Medicine, 2016)", "key": {"[1]": {"tested_on": "P. falciparum K1 (Thailand)", "experiment": "[3H]-hypoxanthine incorporation assay, K1", "format": "cell-based, Plasmodium falciparum", "settings": "read-out: 50% inhibitory concentration (IC50); K1, resistance CQ, SUL, PYR, CYC; mean ± SD"}, "[2]": {"tested_on": "P. falciparum D6 (Sierra Leone)", "experiment": "[3H]-hypoxanthine incorporation assay, D6", "format": "cell-based, Plasmodium falciparum", "settings": "read-out: 50% inhibitory concentration (IC50); D6, resistance MFQ; mean ± SD"}, "[3]": {"tested_on": "P. falciparum clinical isolates (Papua, Indonesia)", "experiment": "Ex vivo drug susceptibility, P. falciparum clinical isolates", "format": "cell-based, Plasmodium falciparum", "settings": "P. falciparum clinical isolates, n = 27 (closed symbols); read-out: median IC50", "experimental": "[…]. Thick blood films made from each well were stained with 5% Giemsa solution for 30 min and examined microscopically. The number of schizonts per 200 asexual-stage parasites was determined for each drug concentration and normalized to the control well."}, "[4]": {"tested_on": "P. falciparum strain 3D7 (MR4)", "experiment": "In vitro parasite reduction ratio (PRR) assay", "format": "cell-based, Plasmodium falciparum", "experimental": "In vitro PRR testing was conducted at GSK (Tres Cantos, Madrid, Spain) as previously described. The assay used the limiting dilution technique to quantify the number of parasites that remained viable after drug treatment. […] Parasites were treated for 120 h. Drug in culture medium was renewed daily over the entire treatment period. […] To quantify the number of viable parasites after treatment, 3-fold serial dilutions were used with the above mentioned samples after removing the drug. Four independent serial dilutions were performed with each sample to correct experimental variations. The number of viable parasites was determined after 21 and 28 d by counting the number of wells with growth using [^3H]-hypoxanthine incorporation. The number of viable parasites was back-calculated by using the formula X^n-1 where n is the number of wells able to render growth and X the dilution factor (when n = 0, number of viable parasites is estimated as zero). […] The parasite clearance time to kill 99.9% of the initial population was determined using a regression calculated on the log-linear phase of the parasite reduction, taking into account the lag phase."}, "[5]": {"tested_on": "P. falciparum PfNF54^0230/N3", "experiment": "In vivo efficacy, P. falciparum mouse model (GSK)", "experimental": "In vivo efficacy against P. falciparum was conducted at GSK according to the standard assay previously described. Female NODscidIL2Rγnull mice were engrafted with human erythrocytes and infected with the isolate P. falciparum PfNF54^0230/N3, a strain developed at GSK for growth in engrafted mice. […] Blood samples were collected on Days 3, 4, 5, 6, and 7 (n = 3 per time point) for parasitemia measurement by flow cytometry. Similarly, blood samples were collected at 0.5, 1, 2, 4, 6, 8, 12, 24, and 48 h after a single administration of 4.7 mg/kg of ACT-451840 to a parallel group of three P. falciparum-infected mice for PK parameters determination. Results are expressed exclusively as antimalarial activity in the P. falciparum murine model."}, "[6]": {"tested_on": "P. falciparum NF54 female gametocytes", "experiment": "P. falciparum dual gamete formation assay, female", "format": "cell-based, Plasmodium falciparum", "settings": "up to a concentration of 20 μM, 24 h incubation", "experimental": "Mature P. falciparum NF54 gametocytes were cultured at Imperial College London (London, United Kingdom), as previously described. […] Male gamete formation was quantified by computer-aided automated identification and counting of exflagellation centers. Female gamete formation was visualized by live immunofluorescence with a Cy3-conjugated antibody specific for Pfs25—a female gamete expressed surface protein. […] IC50 values were calculated using GraphPad Prism version 6 using the logarithmic versus normalized response (variable slope) function (Graphpad Software, San Diego, US)."}, "[7]": {"experiment": "Pharmacokinetic study in healthy mice", "format": "in vivo, female NMRI mice", "experimental": "Female NMRI mice were purchased from Harlan (Horst, The Netherlands) by Actelion Pharmaceuticals. ACT-451840 was formulated as a solution in corn oil and dosed via oral gavage at 10, 100, and 300 mg/kg. Serial blood samples were collected at 0.5, 2, 4, and 8 h after dosing from two mice and after 1, 3, 6, and 24 h from two other mice, creating composite PK profiles from, in total, four mice per dose. Blood samples were analyzed using liquid chromatography coupled to tandem mass spectrometry (LC-MS/MS) after protein precipitation. PK parameters were estimated using non-compartmental analysis from the composite profiles."}, "[8]": {"experiment": "Blood concentrations in P. berghei infected mice", "format": "in vivo", "settings": "1, 4, 24 h after first dose of triple-dose regimen", "experimental": "To assess the PK parameters in infected mice, blood samples were taken at 1, 4, and 24 h after the first dose of a triple-dose regimen in the P. berghei efficacy studies. The employed doses were 15 or 30 mg/kg bis in die (b.i.d.), and 30, 50, 100, 300 mg/kg quaque die (q.d.) (n = 3/timepoint and dose)."}, "[9]": {"experiment": "Safety pharmacology in dogs", "format": "in vivo", "settings": "dogs dosed up to 500 mg/kg"}, "[10]": {"experiment": "Reverse mutation test in vitro"}, "[11]": {"experiment": "General oral toxicity study up to 4 wk, rats", "format": "in vivo"}, "P. falciparum": {"tested_on": "P. falciparum", "experiment": "Prediction of human efficacious exposure", "from_the_text": "In this PK/PD approach, the robust endpoint of animal survival and cure were chosen for clinical relevance. […] The alternative approach used to assess efficacious concentrations in vivo calculated the minimum inhibitory concentration and estimated a minimum parasiticidal concentration from modeling of the exposure–efficacy in the P. falciparum murine model."}, "[12]": {"settings": "in vivo"}, "[13]": {"settings": "single oral 10 mg/kg in corn oil"}, "[14]": {"settings": "single oral 100 mg/kg in corn oil"}, "[15]": {"settings": "single oral 300 mg/kg in corn oil"}}, "note": "Entries after “also recorded” stand apart in the source; their conditions may differ.", "data": [{"smiles": "CC(=O)N1CCN(c2ccc(CN(C(=O)/C=C/c3ccc(C(C)(C)C)cc3)[C@@H](Cc3ccccc3)C(=O)N3CCN(Cc4ccc(C#N)cc4)CC3)cc2)CC1", "note": "[ACT-451840]", "values": [{"measurement": "IC50", "setting": "[1]", "result": 0.3, "unit": "nM"}, {"measurement": "IC50", "setting": "[2]", "result": "0.5 ± 0.1", "unit": "nM"}, {"measurement": "IC50", "setting": "[3]", "result": 2.5, "unit": "nM"}, {"measurement": "lag phase in the killing curve", "setting": "[4]; 10 x IC50", "result": "without lag phase"}, {"measurement": "parasite clearance time to kill 99.9% of the initial population", "setting": "[4]; 10 x IC50", "result": 28, "unit": "h"}, {"measurement": "log PRR", "setting": "[4]; 10 x IC50, decrease in viable parasites over 48 h", "result": 4.4}, {"measurement": "PRR", "setting": "[4]; asexual blood stage forms", "result": "> 4", "unit": "log per parasite cycle"}, {"measurement": "total AUC in blood corresponding to the ED90", "setting": "[5]; P. falciparum mouse model, quadruple-dose regimen […], linearly extrapolated from single dose of 4.7 mg/kg", "result": 227, "unit": "ng·h/mL"}, {"measurement": "effective dose resulting in 90% antimalarial activity (ED90)", "setting": "[5]; oral quadruple-dose regimen, once a day", "result": 3.7, "unit": "mg/kg"}, {"measurement": "effect on functional viability of female gametocytes (Pfs25 expression)", "setting": "[6]", "result": "no activity; also recorded: no effect"}, {"measurement": "AUC (ng/mL*h)", "setting": "[7]; [13]", "result": "1,780 ± 18%"}, {"measurement": "Cmax (ng/mL)", "setting": "[7]; [13]", "result": "415 ± 20", "unit": "%"}, {"measurement": "Tmax", "setting": "[7]; [13]", "result": 2.5, "unit": "h"}, {"measurement": "AUC (ng/mL*h)", "setting": "[7]; [14]", "result": "32,900 ± 36%"}, {"measurement": "Cmax (ng/mL)", "setting": "[7]; [14]", "result": "3,910 ± 20%"}, {"measurement": "Tmax", "setting": "[7]; [14]", "result": 6, "unit": "h"}, {"measurement": "AUC (ng/mL*h)", "setting": "[7]; [15]", "result": "60,900 ± 33%"}, {"measurement": "Cmax (ng/mL)", "setting": "[7]; [15]", "result": "7,010 ± 32%"}, {"measurement": "Tmax", "setting": "[7]; [15]", "result": 7, "unit": "h"}, {"measurement": "blood concentration in infected mice compared to healthy mice", "setting": "[8]", "result": "No significant difference"}, {"measurement": "effect on cardiovascular parameters", "setting": "[9]", "result": "no effect"}, {"measurement": "genotoxicity, reverse mutation test", "setting": "[10]", "result": "not genotoxic"}, {"measurement": "no-observed-adverse-effect level", "setting": "[11]; oral", "result": 100, "unit": "mg/kg/day"}, {"measurement": "local gastrointestinal toxicity", "setting": "[11]; oral up to 2,000 mg/kg/day", "result": "no evidence of local gastrointestinal toxicity"}, {"measurement": "efficacious human total AUC, expressed in mouse blood", "setting": "P. falciparum; 227 x 23", "result": "5,250 ng*h/mL"}, {"measurement": "predicted total efficacious human plasma AUC", "setting": "P. falciparum; corrected for blood/plasma ratio of 0.6", "result": "8,750 ng*h/mL"}, {"measurement": "time for which the threshold of […] would be covered", "setting": "P. falciparum; single dose of 500 mg, fed state, healthy subjects", "result": 72, "unit": "h"}, {"measurement": "genotoxicity, micronucleus test", "setting": "[12]", "result": "not genotoxic"}]}]}
